Results: ChEMBL document CHEMBL3616425, “Factors influencing the cytotoxicity of α-methylene-γ-hydroxy esters against pancreatic cancer” (2015)

Tests used:
Format in all cases: functional
[1] = Cytotoxicity against human PANC1 cells assessed as cell growth at 10 uM after 72 hrs by Cell Titer 96 cell proliferation assay relative to control; conditions: PANC-1, 72 h, read-out: Activity
[2] = Cytotoxicity against human MIAPaCa2 cells assessed as cell growth at 10 uM after 72 hrs by Cell Titer 96 cell proliferation assay relative to control; conditions: MIA PaCa-2, 72 h, read-out: Activity
[3] = Cytotoxicity against human BxPC3 cells assessed as cell growth at 10 uM after 72 hrs by Cell Titer 96 cell proliferation assay relative to control; conditions: BXPC-3, 72 h, read-out: Activity

C=C(C(=O)OC)C(O)c1ccc(C(F)(F)F)cc1 (stereo not given)
growth at 10 µM [1]: 93% | growth at 10 µM [2]: 27% | growth at 10 µM [3]: 69%

C=C(C(=O)OC)[C@@H](c1ccccc1)[C@H](O)Cc1ccccc1 (relative stereo)
growth at 10 µM [1]: 14% | growth at 10 µM [2]: 16% | growth at 10 µM [3]: 6%

C=C(C(=O)OC)[C@@H](c1ccccc1)[C@@H](C)O (relative stereo)
growth at 10 µM [1]: 96% | growth at 10 µM [2]: 24% | growth at 10 µM [3]: 27%

C=C(C(C)=O)[C@@H](c1ccccc1)[C@H](O)c1ccccc1 (relative stereo)
growth at 10 µM [1]: 105% | growth at 10 µM [2]: 53% | growth at 10 µM [3]: 104%

C=C(C(=O)OC)C(O)c1ccccc1 (stereo not given)
growth at 10 µM [1]: 118% | growth at 10 µM [2]: 119% | growth at 10 µM [3]: 129%

C=C(C(=O)O)C(O)c1ccc(OC)cc1 (stereo not given)
growth at 10 µM [1]: 125% | growth at 10 µM [2]: 106% | growth at 10 µM [3]: 110%

C=C(C(=O)O)C(O)c1ccc([N+](=O)[O-])cc1 (stereo not given)
growth at 10 µM [1]: 134% | growth at 10 µM [2]: 130% | growth at 10 µM [3]: 124%

C=C(C(=O)OC)C(O)c1ccccc1C(F)(F)F (stereo not given)
growth at 10 µM [1]: 169% | growth at 10 µM [2]: 127% | growth at 10 µM [3]: 142%

C=C(C(=O)OC)C(O)c1ccc([N+](=O)[O-])cc1 (stereo not given)
growth at 10 µM [1]: 138% | growth at 10 µM [2]: 98% | growth at 10 µM [3]: 123%

C=C(C(=O)OC)[C@@H](C)[C@@H](C)O (relative stereo)
growth at 10 µM [1]: 110% | growth at 10 µM [2]: 147% | growth at 10 µM [3]: 122%

C=C(C(=O)OC)C(C)CO (stereo not given)
growth at 10 µM [1]: 120% | growth at 10 µM [2]: 124% | growth at 10 µM [3]: 126%

C=C(C(=O)O)C(O)c1ccc(C(F)(F)F)cc1 (stereo not given)
growth at 10 µM [1]: 129% | growth at 10 µM [2]: 119% | growth at 10 µM [3]: 121%

C=C(C(=O)O)C(O)c1ccccc1 (stereo not given)
growth at 10 µM [1]: 127% | growth at 10 µM [2]: 94% | growth at 10 µM [3]: 110%

C=C1C(=O)OC1c1ccc([N+](=O)[O-])cc1 (stereo not given)
growth at 10 µM [1]: 136% | growth at 10 µM [2]: 123% | growth at 10 µM [3]: 133%

C=C(C(=O)OC)[C@@H](c1ccccc1)[C@H](OC)c1ccccc1 (relative stereo)
growth at 10 µM [1]: 123% | growth at 10 µM [2]: 102% | growth at 10 µM [3]: 94%

C=C(C(=O)OC)[C@@H](CCC)[C@H](O)c1ccccc1 (relative stereo)
growth at 10 µM [1]: 104% | growth at 10 µM [2]: 32% | growth at 10 µM [3]: 38%

C=C(C(=O)OCC)[C@@H](c1ccccc1)[C@H](O)c1ccccc1 (relative stereo)
growth at 10 µM [1]: 5% | growth at 10 µM [2]: 13% | growth at 10 µM [3]: 3%

C=C(CC(O)c1ccccc1)C(=O)OC (stereo not given)
growth at 10 µM [1]: 67% | growth at 10 µM [2]: 14% | growth at 10 µM [3]: 1%

C=C(C(=O)OC)[C@@H](c1ccccc1)[C@H](O[Si](C)(C)C(C)(C)C)c1ccccc1 (relative stereo)
growth at 10 µM [1]: 135% | growth at 10 µM [2]: 110% | growth at 10 µM [3]: 117%

C=C(C(=O)OC)C(O)c1cccc(F)c1 (stereo not given)
growth at 10 µM [1]: 166% | growth at 10 µM [2]: 129% | growth at 10 µM [3]: 134%

O=C1O[C@H](c2ccccc2)[C@H](c2ccccc2)/C1=C\c1ccccc1 (relative stereo)
growth at 10 µM [1]: 105% | growth at 10 µM [2]: 87% | growth at 10 µM [3]: 117%

C=C1C(=O)OC1c1ccc(C#N)cc1 (stereo not given)
growth at 10 µM [1]: 102% | growth at 10 µM [2]: 99% | growth at 10 µM [3]: 116%

C=C(C(=O)OC)[C@@H](c1ccccc1)[C@H](O)c1ccccc1 (relative stereo)
growth at 10 µM [1]: 14% | growth at 10 µM [2]: 9% | growth at 10 µM [3]: 2%

C=C1C(=O)O[C@H](c2ccccc2)[C@@H]1c1ccccc1 (relative stereo)
growth at 10 µM [1]: 12% | growth at 10 µM [2]: 9% | growth at 10 µM [3]: 3%

C=C(C(=O)OCc1ccccc1)[C@@H](c1ccccc1)[C@H](O)c1ccccc1 (relative stereo)
growth at 10 µM [1]: 6% | growth at 10 µM [2]: 12% | growth at 10 µM [3]: 2%

C=C(C(=O)O)C(O)c1ccc(C#N)cc1 (stereo not given)
growth at 10 µM [1]: 108% | growth at 10 µM [2]: 92% | growth at 10 µM [3]: 114%

C=C(C(=O)OC)C(CO)c1ccccc1 (stereo not given)
growth at 10 µM [1]: 102% | growth at 10 µM [2]: 29% | growth at 10 µM [3]: 60%

C=C(C(=O)OC)C(O)c1ccccc1F (stereo not given)
growth at 10 µM [1]: 157% | growth at 10 µM [2]: 128% | growth at 10 µM [3]: 137%

C=C(C(=O)Oc1ccccc1)[C@@H](c1ccccc1)[C@H](O)c1ccccc1 (relative stereo)
growth at 10 µM [1]: 9% | growth at 10 µM [2]: 8% | growth at 10 µM [3]: 1%

C=C(C(=O)OCC)C(O)c1ccc(OC)cc1 (stereo not given)
growth at 10 µM [1]: 108% | growth at 10 µM [2]: 110% | growth at 10 µM [3]: 130%

C=C(C(=O)OC)[C@@H](C1CCCCC1)[C@@H](C)O (relative stereo)
growth at 10 µM [1]: 145% | growth at 10 µM [2]: 77% | growth at 10 µM [3]: 120%

C=C(C(=O)OC)[C@@H](c1ccccc1)[C@H](O)CCC (relative stereo)
growth at 10 µM [1]: 33% | growth at 10 µM [2]: 16% | growth at 10 µM [3]: 8%

C=C(C(=O)OC)C(O)c1ccc(F)cc1 (stereo not given)
growth at 10 µM [1]: 136% | growth at 10 µM [2]: 118% | growth at 10 µM [3]: 137%

C=C(C(=O)OC)C(O)c1c(F)c(F)c(F)c(F)c1F (stereo not given)
growth at 10 µM [1]: 147% | growth at 10 µM [2]: 111% | growth at 10 µM [3]: 117%

C=C(C(=O)OC)C(O)c1ccc(C#N)cc1 (stereo not given)
growth at 10 µM [1]: 131% | growth at 10 µM [2]: 94% | growth at 10 µM [3]: 126%

C=C(C[C@@H](c1ccccc1)[C@H](O)c1ccccc1)C(=O)OC (relative stereo)
growth at 10 µM [1]: 124% | growth at 10 µM [2]: 59% | growth at 10 µM [3]: 129%

C=C(C(=O)OC)C(CO)C1CCCCC1 (stereo not given)
growth at 10 µM [1]: 164% | growth at 10 µM [2]: 98% | growth at 10 µM [3]: 86%

C=C(C(=O)OC)[C@@H](C)[C@H](O)c1ccccc1 (relative stereo)
growth at 10 µM [1]: 91% | growth at 10 µM [2]: 32% | growth at 10 µM [3]: 49%

C=C1C(=O)O[C@@H]2C3O[C@]3(C)CC/C=C(\C)CC[C@@H]12 (stereo not given in full)
growth at 10 µM [1]: 22% | growth at 10 µM [2]: 11% | growth at 10 µM [3]: 12%

C=C(C(=O)OC)[C@@H](c1ccccc1)[C@H](O)C1CCCCC1 (relative stereo)
growth at 10 µM [1]: 83% | growth at 10 µM [2]: 29% | growth at 10 µM [3]: 23%
